This is an account of results in US6083481A, “Thrombus imaging agents” (Diatide, Inc., priority 1998, dated 2000).

The subject of this test is human platelets in platelet-rich plasma. Nature of the test: Platelet aggregation inhibition assay (ADP-induced, platelet-rich plasma). The settings on record: fresh human platelet-rich plasma, aggregation induced by ADP 10 to 15 micromolar; read-out: IC50 (concentration of reagent that inhibits by 50% the aggregation of human platelets). Format: cell-based. Here is the method: Platelet aggregation studies were performed essentially as described by Zucker (1989, Methods in Enzymol. 169: 117-133). Briefly, platelet aggregation was assayed with or without putative platelet aggregation inhibitory compounds using fresh human platelet-rich plasma comprising 300,000 platelets per microlitre. Platelet aggregation was induced by the addition of a solution of adenosine diphosphate to a final concentration of 10 to 15 micromolar, and the extent of platelet aggregation monitored using a Bio/Data aggregometer (Bio/Data Corp., Horsham. Pa.). The concentrations of platelet aggregation inhibitory compounds used were varied from 0.1 to 500 μg/mL. The concentration of inhibitor that reduced the extent of platelet aggregation by 50% (defined as the IC50) was determined from plots of inhibitor concentration versus extent of platelet aggregation. An inhibition curve for peptide RGDS was determined for each batch of platelets tested as a positive control.
*concentration of reagent that inhibits by 50% the aggregation of human
platelets in plateletrich plasma induced to aggregate by the addition of
adenosine diphosphate (ADP).

For GRDGVRGDFCAcm GCAcm amide [Peptide P98], the IC50 worked out at 15 µM.
